Data on seven compounds can be found in US10098962B2, “Glycosaminoglycan derivative and method for producing same” (Seikagaku Corporation, priority 2013, dated 2018).

Where two headings read alike, the source gives them in different places.

The conditions of data set [1]: rat, in vivo, inhaled or intranasal.
Description: As a system for test, BN/CrlCrlj rat (Charles River Laboratories International, Inc., 5-week old) was used.
For administration of each test substance, the test system was fixed dorsally under general anesthesia, and by using a sonde for intratracheal administration (MicroSprayer® Aerosolizer Model IA-1B, manufactured by Penn-Century), intratracheal administration was performed with volume of 100 μL. As general anesthesia, inhalation of isoflurane (Forane (registered trade mark), Dainippon Pharmaceutical Co., Ltd., concentration of 3.0%, flow rate of 2.0 L/min) filled in a small animal anesthetizer (TK-4, manufactured by BioMachinery Co., Ltd.) was used.
At Hour 4, 24, 48, 72 and 168 after administration of a test substance, the pulmonary tissue was collected by using scissors and forceps under pentobarbital anesthesia. Meanwhile, three samples were taken for each evaluation time point. […]
Each parameter of drug kinetics was calculated from a change in average content in pulmonary tissue. If there was an animal showing the measurement value of less than lower limit of quantification (<10 ng/g), the average content in pulmonary tissue was calculated by having the value of 0 (zero) for it. The time t (hr) for calculating AUC0-t was the final time point at which the quantification can be made. […]
Data set [2] concerns rat model of muscle pain disorder caused by carrageenan. Kind of data set: Effect of diclofenac coupled sodium hyaluronates in rat model of muscle pain disorder caused by carrageenan, 14 days (Test Example B7). The class given is in vivo. The following applies: for muscle pressure pain threshold value vs control group: 1% (w/v) i.m. 14 days before carrageenan, measured 3 h after carrageenan, FIG. 10; for duration of analgesic effect: 1% (w/v), intramuscular administration.
Description: The following were prepared as a test substance in which citric acid buffer is used as a solvent. As an inflammatory agent, 10 mg/mL carrageenan solution was used. […] A rat (Crj: SD line (SPF), male, 7-week old) was fixed dorsally under general anesthesia, and a broad region around the left gastrocnemius muscle was shaved using a shaver.

In data set [3] the test system is rat model of muscle pain disorder caused by silver nitrate. Kind of data set: Effect of diclofenac coupled hyaluronic acids in rat model of muscle pain induced by silver nitrate (Test Example B5). The class given is in vivo. The following applies: for duration of analgesic effect: 1% (w/v), intramuscular, observed for 3 days; for pain score vs control group / muscle pressure pain threshold value vs control group: i.m. 100 μL/site, 1% (w/v) in citric acid buffer, 24, 48, 72 h after administration; for pain score vs control group: FIG. 7; for muscle pressure pain threshold value vs control group: FIG. 8. As to the method: As an inflammatory agent, 0.1 mol/L silver nitrate solution was filtered through a 0.22 μm filter and used. […] Accordingly, a rat model of muscle pain disorder caused by silver nitrate was prepared. […] At Hour 24 after the administration of 0.1 mol/L silver nitrate solution, the rats were divided into 3 groups, and each group was administered with either the test substance or citric acid buffer solution. […] Furthermore, ** and * represent, in the parametric Tukey test, **p<0.01 and *p<0.05 (vs Control), respectively. […] The length of move of the weight at which a pain-related behavior like avoidance is shown was read to one decimal place. This operation was repeated three times in total, and the median value was taken as the muscle pressure pain threshold value. […] Furthermore, *** represents, in the parametric Tukey test, ***p<0.001 (vs Control).

Data set [4] is described as follows: Release test for conjugates obtained from Examples 26 to 28, citrate buffer pH 5.1 (Test Example A7). The class given is physicochemical. Here is the method:
The amount of the dissociated diclofenac component which is present in a solution in an initial state (storage: Day 0) immediately after the dissolution was subjected to quantitative analysis based on ODS-HPLC. […] Meanwhile, the method for pre-treatment of HPLC sample is described below. Methanol (1 mL) was added to the stored solution (1 g). After dilution and addition of acetonitrile to 20 mL, the hyaluronic acid component was allowed to precipitate. The obtained supernatant was used as a HPLC sample. HPLC conditions are as follows. column: […] flow rate: 1 mL/min temperature: 35° C.

The test system of data set [5] is rat model of muscle pain disorder caused by carrageenan.
Description: (§1) As an inflammatory agent, 10 mg/mL carrageenan solution was used. As general anesthesia, inhalation of isoflurane (concentration of 3.0%, flow rate of 2.0 L/min) filled in a small animal anesthetizer (TK-4, manufactured by BioMachinery Co., Ltd.) was used.
(§2) A rat (Crj: SD line (SPF), male, 8-week old) was fixed dorsally under general anesthesia, and a broad region around the left gastrocnemius muscle was shaved using a shaver. The area for injection was sprayed with 70% alcohol for sterilization, and by using an injection tube applied with needle for subcutaneous insulin administration (MYJECTOR (registered trade mark), TERUMO CORPORATION), each test solution was injected (volume of 100 μL/site) for intramuscular administration into the left medial gastrocnemius muscle of a rat.
(§3) 10 Days after administering the test substance, each group was administered with 10 mg/mL carrageenan solution. As for the administration method, like the test substance, under inhalation of isoflurane, the region around the gastrocnemius muscle was sprayed with 70% alcohol for sterilization, and by using an injection tube applied with 29 G needle for subcutaneous insulin administration, it was injected (volume of 100 μL/site) for intramuscular administration into the left gastrocnemius muscle of a rat. […]
For data set [6] the test system is unchanged. Kind of data set: Effect of diclofenac coupled chondroitin sulfate in rat model of muscle pain disorder caused by carrageenan, 7 days (Test Example B8). The class given is in vivo.
Description: The followings were prepared as a test substance in which PBS is used as a solvent.
as §1
A rat (Crj: SD line (SPF), male, 9-week old) was fixed dorsally under general anesthesia, and a broad region around the left gastrocnemius muscle was shaved using a shaver. The area for injection was sprayed with 70% alcohol for sterilization, and by using an injection tube applied with needle for subcutaneous insulin administration (MYJECTOR (registered trade mark), TERUMO CORPORATION), the test solution was injected (volume of 100 μL/site) for intramuscular administration into the left gastrocnemius muscle of a rat.
7 Days after administering the test substance, each group was administered with 10 mg/mL carrageenan solution. As for the administration method, like the test substance, under inhalation of isoflurane, the region around the gastrocnemius muscle was sprayed with 70% alcohol for sterilization, and by using an injection tube applied with 29 G needle for subcutaneous insulin administration, it was injected (volume of 100 μL/site) for intramuscular administration into the left gastrocnemius muscle of a rat. […]
In data set [7] the test system is rat model of muscle pain disorder caused by silver nitrate. Kind of data set: Effect of NSAID coupled chondroitin sulfates in rat model of muscle pain induced by silver nitrate (Test Example B3). The class given is in vivo. Conditions: i.m. 100 μL/site, 1% DF-CS or 5% other conjugates in PBS, 24, 48, 72 h after administration. Here is the method: As an inflammatory agent, 0.1 mol/L silver nitrate solution was filtered through a 0.22 μm filter and used. […] Accordingly, a rat model of muscle pain disorder caused by silver nitrate was prepared. […] Furthermore, *** and * represent, in the parametric Tukey test, ***p<0.001 and *p<0.05 (vs Control), respectively. Score 0: Normal Score 1: Mild claudication Score 2: Severe claudication Score 3: Walking on three legs […] The length of move of the weight at which a pain-related behavior like avoidance is shown was read to one decimal place. This operation was repeated three times in total, and the median value was taken as the muscle pressure pain threshold. […] Furthermore, *** and * represent, in the parametric Tukey test, ***p<0.001 and *p<0.05 (vs Control), respectively.

Data set [8] can be described thus: Release test for conjugates obtained from Examples 26 and 32 at 60, 40, 25°C (Test Example A9). The class given is physicochemical. Here is the method: The amount of the dissociated diclofenac component which is present in a solution in an initial state (storage: Day 0) immediately after the dissolution was subjected to quantitative analysis based on ODS-HPLC. Other aliquot was stored at 60° C., 40° C., or 25° C. immediately after the dissolution, the decomposition amount of diclofenac ester was similarly subjected to quantitative analysis after lapse of the each designated time. From the ratio between the obtained amount of the dissociated diclofenac component at each time point and the amount of dissociated diclofenac component resulting from forced dissociation, the dissociation ratio (%) was calculated. For a pre-treatment of a HPLC sample, OASIS HLB was used, and a fraction eluted by acetonitrile was analyzed. HPLC conditions are as follows. column: […] flow rate: 1 mL/min temperature: 35° C.

Data set [9] relates to rat model of muscle pain disorder caused by carrageenan. The data set can be described thus: Effect of diclofenac coupled hyaluronic acid in rat model of muscle pain disorder caused by carrageenan, 10 days (Test Example B6). The class given is in vivo.
Description: The following were prepared as a test substance in which citric acid buffer is used as a solvent.
as §1, §2, §3
Setting [10] is: 1% in sodium citrate buffer pH 5.1, 40°C, after 4 weeks.
Where [11] appears, read: 1% in sodium citrate buffer pH 5.1, immediately after dissolution.
The mark [12] stands for this setting: 1% (w/v), intramuscular administration.

Turning to `C[C@H]1C[C@H]2[C@@H]3CCC4=CC(=O)C=C[C@]4(C)[C@@]3(F)[C@@H](O)C[C@]2(C)[C@@]1(O)C(=O)CO` [Betamethasone], in data set [1], the AUC0-t was 21371 ng·h/g and the “AUC0-∞” value is 21797 ng·h/g.
With “Diclofenac(1-amino-2-propanol)-hyaluronic acid”, in data set [2], the “muscle pressure pain threshold value vs control group” value is listed as “increased in a significant sense” and the “duration of analgesic effect” value is recorded as 14 days. Also, in data set [3], the “duration of analgesic effect” value was 3 days, the “pain score vs control group” value was “improved in a significant sense” and the “muscle pressure pain threshold value vs control group” value is “increased in a significant sense”.
Turning to “Diclofenac(serine ethyl ester)-hyaluronic acid”, the “Content of dissociated diclofenac (w/w %)” value in data set [4] (setting [10]) stood at 0.72 w/w %; in data set [4] (setting [11]) it was 0.05 w/w %.
Taken in the same sequence, the figures for “Diclofenac(threonine ethyl ester)-hyaluronic acid” were 0.19 w/w % and 0.00 w/w %.
On to “diclofenac (1-amino-2-propanol)-chondroitin sulfate [Example A4-1]”, for which the “muscle pressure pain threshold value vs control group” value in data set [5] (1% (w/v) i.m. 10 days before carrageenan, FIG. 12) was “increased in a significant sense”. Further, the “duration of analgesic effect” value in data set [5] (setting [12]) came out at 10 days.
On to “diclofenac-(2-aminoethanol)-chondroitin sulfate [DF-CS]”, for which the “muscle pressure pain threshold value vs control group” value was “increased in a significant sense” in data set [6] (1% (w/v) i.m. 7 days before carrageenan, measured 3 h after carrageenan, FIG. 11) and “increased in a significant sense” in data set [7] (FIG. 4). In addition, in [6] (setting [12]), the “duration of analgesic effect” value is 7 days. Further, the “pain score vs control group” value in data set [7] (FIG. 3) is “improved in a significant sense”.
In the case of “diclofenac-(2-aminoethanol)-hyaluronic acid”, the diclofenac dissociation ratio in data set [8] (1% in sodium citrate buffer pH 5.1, 25°C, 0 y (year)) came to 1.3%; in data set [8] (1% in sodium citrate buffer pH 5.1, 25°C, 0.5 y (year)) it was 6.2%; in data set [8] (1% in sodium citrate buffer pH 5.1, 25°C, 1 y (year)), 10.9%; in [8] (1% in sodium citrate buffer pH 5.1, 40°C, 0 m (month)), 1.3%; in [8] (1% in sodium citrate buffer pH 5.1, 40°C, 4 m (month)), 13.5%; in data set [8] (1% in sodium citrate buffer pH 5.1, 40°C, 6 m (month)), 18.2%. Moreover, the diclofenac dissociation ratio in data set [8] (1% in sodium citrate buffer pH 5.1, 40°C, 9 m (month)) was determined as 23.7%; in [8] (1% in sodium citrate buffer pH 5.1, 40°C, 12 m (month)), 28.2%; in data set [8] (1% in sodium citrate buffer pH 5.1, 60°C, day 0), 1.3%; in data set [8] (1% in sodium citrate buffer pH 5.1, 60°C, day 7), 8.1%; in [8] (1% in sodium citrate buffer pH 5.1, 60°C, day 14) it was 12.7%; in data set [8] (1% in sodium citrate buffer pH 5.1, 60°C, day 21), 16.4%. Also, the “muscle pressure pain threshold value vs control group” value in [9] (1% (w/v) i.m. 10 days before carrageenan, measured 3 h after carrageenan, FIG. 9) is “increased in a significant sense”; in data set [2] it was “not increased”; in data set [3], “increased in a significant sense”. The “duration of analgesic effect” value in data set [9] (setting [12]) is on record as 10 days; in data set [2], “less than 14 days”; in [3] it was 3 days. Besides, the “pain score vs control group” value in data set [3] is recorded as “improved in a significant sense”.
